In patent US5770688A, “Method and composition for the treatment of mammalian HIV infection” (GSF-Forschungszentrum fur Umwelt und Gesundheit GmbH, priority 1989, dated 1998):

How the values were obtained:
[1] = blood serum levels of melittin after injection; assay type: in vivo, cats
Experimental: During the experiment it was determined that detectable blood serum levels of melittin (Seq. ID NO:1) of about 5 ng/ml could be detected following an injection of melittin equal to […] a few minutes after injection. […] In vitro data has shown that melittin, after this time interval, is found within the cells where it can be detected in tact for more than 48 hours. The LD50 (lethal dose where 50% of the animals perish) for melittin is not known for cats. In the present experiment, both cats M and G were treated twice weekly with subcutaneous injections over a period of eight weeks. During the first three weeks, each cat received increasing dosages of melittin (Seq. ID NO:1) beginning with a 50 mg/kg bodyweight injection, followed by injections of 100 mg/kg, and then escalating to 150, 225, 375 and 500 mg/kg at the sixth injection. Upon reaching this level, the melittin was administered in a constant dosage of 500 mg/kg twice weekly, for the remaining five weeks. […] The quantitative effect of melittin on FIV replication was determined quantitatively by utilizing FIV-PCR employing nested primers from the gag region. Quantification was based upon the determination of amplified product in identical samples which have been amplified after different cycle times. This is best seen by reference to FIG. 47A. Furthermore, each of the cats were clinically investigated in detail. […]

HIV = test: relative infectious nature of culture supernatant, indirect immunoperoxidase staining of LC5 cells; assay type: cell-based
Experimental: Referring more particularly to FIGS. 1-4, melittin (Seq. ID NO:1) and its specified analogues were tested for their effect on HIV-infected T-lymphoma cells. In this regard the following cell lines were employed in the testing: KE37-1 (uninfected) and KE37-1/111S (infected with HTLV-111β). These infected cells were incubated for a period of seven days under test conditions at a temperature of 37° C. and in the presence of 5% CO2. A culture medium of RPMI 1640 (GIBCO) was employed and was further supplemented with 10% fetal calf serum which contained approximately 100 units of penicillin, 100μ of streptomycin, and approximately 0.25μ fungizone (Amphotericin B) per milliliter. […] A first test was conducted for purposes of determining the relative cell concentration as a function of the number of HIV infected cells present by employing an MTT test. The MTT test was carried out in microtiter plates according to T. Mosmann, "Rapid Colorimetric Assay for Cellular Growth and Survival: Application to Proliferation and Cytotoxicity Assays," Journal of Immunological Methods, v. 65 (1983), pp. 55-63. The MTT test was slightly modified: 10 μl of an MTT solution (5 mg/ml MTT dissolved in PBS, sterilized by filtration; MTT is 3-(4,5-Dimethylthiazole-2-yl)-2,5-diphenyltetrazolimbromide) were added to every well. […] The optical density (OD) of the solution was determined at=600 nm. […]

[2] = in vitro persistence of melittin within cells

Gly-Ile-Gly-Ala-Val-Leu-Lys-Val-Leu-Thr-Thr-Gly-Leu-Pro-Ala-Leu-Ile-Ser-Trp-Ile-Lys-Arg-Lys-Arg-Gln-Gln-Amide [melittin]
disappearance from the serum ([1]; in vivo): disappears quickly from the serum
detectable blood serum levels ([1]; injection equal to 200 mg/kg, a few minutes after injection): about 5 ng/ml
ability of the cells to infect (INF%) (HIV; 2.5 μg per ml, FIG. 2): revert substantially back to zero
supernatant infectivity (HIV; single treatment at cultivation start, subtoxic concentrations, seven days post treatment): supernatant infectivity was reduced
time detectable in tact within the cells [2]: more than 48 hours
